Source: PMC7560238, “Development of a Thymoquinone Polymeric Anticancer Nanomedicine through Optimization of Polymer Molecular Weight and Nanoparticle Architecture” (Pharmaceutics, 2020)
Where two headings read alike, the source gives them in different places.

Assays:
[1] = design: method as in earlier work; details: cirsiliol from a formulation similar to F2-NC, cited from earlier work
[2] = Pilot pharmacokinetic study after oral administration; format: in vivo; details: male, Balb/c, mouse, mice, oral gavage, 6 mg/kg TQ, plasma
Method: Thirty male Balb/c mice (8–10 weeks old) were housed in plastic cages in an air-conditioned room with free access to food and water and were fasted overnight prior to the experiment. On the day of the experiment, animals were divided into two groups and each group was administered a single dose of 6 mg/kg TQ either as suspension in ultrapure water or in the form of TQ NPs (F2-NC) via oral gavage. At 1, 2, 4, 6, and 24 h post-administration, three animals from each group were randomly selected and euthanized by diethyl ether, and blood (~1 mL) was collected from the jugular vein into heparinized plastic tubes. Blood samples were left to sit for 45 min at room temperature then centrifuged at 5500 rpm for 30 min at room temperature. Approximately 0.5 mL of plasma was collected into microtubes, and plasma samples were stored at −80 °C until further analysis. The animal protocol for this work was approved by the Animal Care and Use Committee of Al-Zaytoonah University of Jordan (decision no. 1/5/2019–2020). All work was conducted in accordance with the Helsinki guidelines for animal research and all applicable Jordanian governmental rules and guidelines.
The system consisted of a Shimadzu LCMS-8030 quadrupole mass spectrometer (Kyoto, Japan) equipped with an electrospray ionization (ESI) source, and a Shimadzu Prominence 30A Ultra-Fast Liquid Chromatography system composed of a system controller, degasser, binary pump and auto-sampler. Samples were eluted on a C8 column (5 μm, 50 × 2.1 mm) coupled with a guard column (5 μm, 10 × 2.1 mm) at 20 °C. The isocratic mobile phase consisted of acetonitrile (ACN) and 0.2% formic acid (50:50, v/v) at a flow rate of 0.2 mL min^−1 and an injection volume of 20 μL. TQ samples were ionized by the ESI source in negative ion mode ([…] spray voltage). The dwell time was set to 50 ms and the probe temperature was 400 °C. Quantification was performed using multiple reaction monitoring (MRM) of the transitions at m/z 164.0→134.1.
TQ was dissolved in ACN to make a stock solution at 1 mg mL^−1. TQ working standard solutions were prepared by serial dilutions of the stock solution in the mobile phase. Calibration curve samples were prepared by spiking the appropriate TQ working standard solutions into blank plasma obtained from untreated mice to achieve concentrations from 2 to 1000 ng mL^−1.
To 100 μL of plasma (spiked with calibration curve samples or plasma extracted from treated mice), ethyl acetate (1 mL) was added and vortex mixed for 30 s. […] Samples were then injected into the LC-MS/MS system to quantify the plasma concentration of TQ at each time point. […] Plasma t1/2 was determined by fitting the elimination phase of the plots to the first-order model.

PANC-1 = experiment: Antiproliferative activity, SRB assay, PANC-1; format: cell-based, human
Method: (§1) Antiproliferative activity was evaluated in various human cancer cell lines (MCF-7, PANC-1, and Caco-2) as well as a normal cell line (human dermal fibroblasts). All cell lines were obtained from the American Type Culture Collection (ATCC, Manassas, VA, USA). MCF-7, PANC-1, and Caco-2 cells were cultured in high glucose Dulbecco’s modified Eagle medium (DMEM; Eurobio Scientific, Les Ulis, France). Fibroblasts were cultured in Iscove’s modified Dulbecco’s medium (IMDM; Eurobio Scientific, Les Ulis, France). All media were supplemented with 10% fetal bovine serum, 1% L-glutamine, and 1% penicillin/streptomycin. The cell lines were maintained at 37 °C in a 5% CO2 atmosphere with 95% humidity. For the cytotoxicity experiments, cells were cultured in 96-well plates at density of 6 × 10^3 cells per well to ensure exponential growth throughout the experimental period and to ensure a linear relationship between absorbance and cell number when analyzed by the sulforhodamine B (SRB) assay. […] One hundred microliters of 10 mM Tris base solution was then added to each well, and the absorbance was recorded on a microplate reader (BioTek Instruments, Winooski, VT, USA) at 570 nm. Results were expressed as % cell viability compared to the control (untreated cells). […]

MCF-7 = experiment: Antiproliferative activity, SRB assay, MCF-7; format: cell-based, human
Method: as §1

Caco-2 = experiment: Antiproliferative activity, SRB assay, Caco-2; format: cell-based, human
Method: as §1

human dermal fibroblasts = experiment: Antiproliferative activity, SRB assay, normal cell line; format: cell-based; details: Fibroblast, 72 h
Method: as §1

| Structure (SMILES) | cumulative release ([1]; after 96 h) | cumulative release ([1]; within the first 48 h) | AUC(0-inf) [2] | Cmax [2] | Tmax [2] | half-life ([2]; elimination phase first-order fit) | IC50 (PANC-1; Homo sapiens, PANC-1, 72 h, SRB assay) | SI (selectivity index) (PANC-1; IC50 in fibroblasts divided by IC50 in PANC-1) | IC50 (MCF-7; Homo sapiens, MCF7, MCF-7, 72 h, SRB assay) | SI (selectivity index) (MCF-7; IC50 in fibroblasts divided by IC50 in MCF-7) | IC50 (Caco-2; Homo sapiens, Caco-2, 72 h, SRB assay) | SI (selectivity index) (Caco-2; IC50 in fibroblasts divided by IC50 in Caco-2) | IC50 (human dermal fibroblasts) |
| --- | --- | --- | --- | --- | --- | --- | --- | --- | --- | --- | --- | --- | --- |
| COc1cc2oc(-c3ccc(O)c(O)c3)cc(=O)c2c(O)c1OC [cirsiliol] | ~ 40% | ~ 20% |  |  |  |  |  |  |  |  |  |  |  |
| CC1=CC(=O)C(C(C)C)=CC1=O [TQ, 2-isopropyl-5-methylbenzo-1,4-quinone] |  |  | 4.67 ± 0.508 µg·h/mL | 0.389 ± 0.0415 µg/mL | 4 h | 5 h | 8.8 ± 2.2 µM | 6.7 | 20.5 ± 3.7 µM | 2.9 | 30.4 ± 0.5 µM | 1.9 | 58.9 ± 10.3 µM |
